Test results as given in patent US12060360B2, “Lysyl oxidase inhibitors” (The Institute of Cancer Research: Royal Cancer Hospital, priority 2017, dated 2024).

Biological target: T1, LOX (Mus musculus, UniProt P28301)
T1 construct: Full length LOX cDNA was then PCR cloned into pEGFP-N1 (Clonetech), or biosensor vector proGFP2-N1; expressed in transfected cells; host or cells: MDCK cells grown as cysts on Matrigel, G418-selected
T1 sequence (P28301 163-411): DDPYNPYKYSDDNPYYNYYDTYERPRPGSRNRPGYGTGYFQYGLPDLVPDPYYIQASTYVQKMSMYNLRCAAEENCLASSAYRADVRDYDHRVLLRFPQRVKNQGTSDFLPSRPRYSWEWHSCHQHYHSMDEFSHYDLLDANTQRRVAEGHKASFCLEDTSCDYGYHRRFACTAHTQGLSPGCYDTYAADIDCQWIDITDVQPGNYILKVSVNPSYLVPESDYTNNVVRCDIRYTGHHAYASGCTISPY
Experiment: LOX activity in cysts assay (LOX-roGFP2 biosensor, MDCK cysts)
Assay type: cell-based
Conditions: for inhibition at 10 µM: inhibitor added 30 min prior to imaging, read-out: LOX biosensor inhibition (cyst) @ 10 uM; for IC50: roGFP2 ratio at basal surface, read-out: LOX biosensor IC50 (cyst)
Procedure: LOX Activity in Cysts Assay (Tang et al, 2017).
All cell lines used in this study were purchased from American Type Culture Collection (ATCC). Mycoplasma contamination was routinely monitored by PCR. Cells used were not found to be Mycoplasma positive. MDCK cell lines were cultured in Dulbecco's Modified Eagle Medium (DMEM) supplemented with 10% fetal bovine serum (FBS) and 1% Penicillin Streptomycin solution (Pen Strep). For GFP constructs transfection in MDCK cells, lipofectamine 3000 was used according to manufactures protocols. Cells were either selected with G418 (Life Technologies) at 5 mg/ml. All cell culture reagents were purchased from Life Technologies.
To produce MDCK cysts, cells were cultured on Matrigel (Corning) with 2% Matrigel supplemented in DMEM with 10% FBS. Cysts were allowed to form for 10 days before subsequent studies.
Mouse LOX cDNA was purchased from OriGene. Full length LOX cDNA was then PCR cloned into pEGFP-N1 (Clonetech), or biosensor vector proGFP2-N1 (Hanson, 2004) using the following primers, […] (forward primer) and […] (reverse primer). For the insertion into pEGFP-N1 or proGFP2-N1, NheI and XhoI restriction sites were added to forward and reverse primers accordingly. Mutant LOX constructs were made using QuickChange II site-directed mutagenesis kit (Agilent Technologies) following manufacture's protocol using LOX-GFP as template. To generate, roGFP2 versions of LOX mutant constructs, LOX mutant cDNA was transferred from pEGFP-N1 to proGFP2-N1 using NheI and XhoI.
All photomicrographs were taken with a Leica TCS SP8 X confocal system. For LOX biosensor imaging, live MDCK cysts were used. The oxidised biosensor was excited using a 405 nm laser, while the reduced biosensor was excited with a 488 nm laser. Emission of the biosensor was recorded at 500 nm˜530 nm range using sequential scans. Ratio images were generated following a published protocol {Kardash, 2011 #376}. Note, while the published protocol generates YFP/CFP ratio images, we used it to generate Oxidised/Reduced (roGFP2 ratio) ratio images. The roGFP2 ratio at the basal surface of MDCK cysts was used to indicate LOX inhibition. LOX inhibitors were added 30 min prior to imaging.
For clarity, readout for DMSO treated cysts represents 0% inhibition (no inhibition) and readout for BAPN at 1 mM is used as 100% inhibition (full inhibition).

[1] = MDCK cysts, DMSO = 0%, BAPN 1 mM = 100% inhibition

SMILES	inhibition at 10 µM [1]	further results
CC1(C)C[C@@H]2CN(C(=O)NCCO)C[C@H]1N(c1ccc(N3CCS(=O)(=O)CC3)cc1)C2 [Example 5, (1S,5S)-6-(4-(1,1-dioxidothiomorpholino)phenyl)-N-(2-hydroxyethyl)-9,9-dimethyl-3,6-diazabicyclo[3.2.2]nonane-3-carboxamide]	62%	
CNS(=O)(=O)N1C[C@@H]2CN(c3ccc(OC)cc3)[C@H](C1)C(C)(C)C2 [Example 56, (1S,5S)-6-(4-methoxyphenyl)-N,9,9-trimethyl-3,6-diazabicyclo[3.2.2]nonane-3-sulfonamide]	74%	
CCOc1ccc(N2C[C@H]3CN(C(=O)CCC#N)C[C@@H]2C(C)(C)C3)cc1 [Example 50, 4-((1S,5S)-6-(4-Ethoxyphenyl)-9,9-dimethyl-3,6-diazabicyclo[3.2.2]nonan-3-yl)-4-oxobutanenitrile]	57%	
CC1(C)C[C@@H]2CN(C(=O)NCCO)C[C@H]1N(c1ccc(Br)cc1)C2 [Example 35, (1S,5S)-6-(4-Bromophenyl)-N-(2-hydroxyethyl)-9,9-dimethyl-3,6-diazabicyclo[3.2.2]nonane-3-carboxamide]	84.1%	
CNC(=O)N1C[C@@H]2CN(c3ccc(N4CCS(=O)(=O)CC4)cc3)[C@H](C1)C(C)(C)C2 [Example 6, (1S,5S)-6-(4-(1,1-dioxidothiomorpholino)phenyl)-N,9,9-trimethyl-3,6-diazabicyclo[3.2.2]nonane-3-carboxamide]	50%	
CCOc1ccc(N2C[C@H]3CN(CCc4cn[nH]c4)C[C@@H]2C(C)(C)C3)cc1 [Example 48, (1R,5S)-3-(2-(1H-pyrazol-4-yl)ethyl)-6-(4-ethoxyphenyl)-9,9-dimethyl-3,6-diazabicyclo[3.2.2]nonane]	100%	
CCOc1cccc(N2C[C@H]3CN(C(=O)NCCO)C[C@@H]2C(C)(C)C3)c1 [Example 24, (1S,5S)-6-(3-ethoxyphenyl)-N-(2-hydroxyethyl)-9,9-dimethyl-3,6-diazabicyclo[3.2.2]nonane-3-carboxamide]	100%	IC50 (MDCK cysts): < 630 nM
CCOc1ccc(N2C[C@H]3CN(C(=O)Nc4cc(C)n[nH]4)C[C@@H]2C(C)(C)C3)cc1 [Example 25, (1S,5S)-6-(4-ethoxyphenyl)-9,9-dimethyl-N-(3-methyl-1H-pyrazol-5-yl)-3,6-diazabicyclo[3.2.2]nonane-3-carboxamide]	73%	
CCOc1ccc(N2C[C@H]3CN(C(=O)CCc4cccnc4)C[C@@H]2C(C)(C)C3)cc1 [Example 52, 1-((1S,5S)-6-(4-ethoxyphenyl)-9,9-dimethyl-3,6-diazabicyclo[3.2.2]nonan-3-yl)-3-(pyridin-3-yl)propan-1-one]	100%	
CCOc1ccc(N2C[C@H]3CN(C(=O)N(CCO)CCO)C[C@@H]2C(C)(C)C3)cc1 [Example 14, (1S,5S)-6-(4-ethoxyphenyl)-N,N-bis(2-hydroxyethyl)-9,9-dimethyl-3,6-diazabicyclo[3.2.2]nonane-3-carboxamide]	75%	
CCOc1ccc(N2C[C@H]3CN(C(=O)Nc4ccc(OC)cc4)C[C@@H]2C(C)(C)C3)cc1 [Example 1, (1S,5S)-6-(4-ethoxyphenyl)-N-(4-methoxyphenyl)-9,9-dimethyl-3,6-diazabicyclo[3.2.2]nonane-3-carboxamide]	91%	
CCOc1ccc(N2C[C@H]3CN(C(=O)NC[C@@H](O)CO)C[C@@H]2C(C)(C)C3)cc1 [Example 19, (1S,5S)-N-((R)-2,3-dihydroxypropyl)-6-(4-ethoxyphenyl)-9,9-dimethyl-3,6-diazabicyclo[3.2.2]nonane-3-carboxamide]	100%	
CC1(C)C[C@@H]2CN(C(=O)NCCO)C[C@H]1N(c1ccc(N3CCCCC3)cc1)C2 [Example 32, (1S,5S)-N-(2-hydroxyethyl)-9,9-dimethyl-6-(4-(piperidin-1-yl)phenyl)-3,6-diazabicyclo[3.2.2]nonane-3-carboxamide]	90%	IC50 (MDCK cysts): < 180 nM
CCOc1ccc(N2C[C@@H]3CC4(CCCCC4)[C@H]2CCN3C(=O)NCCO)cc1 [Example 23, (1S,5R)-6-(4-ethoxyphenyl)-N-(2-hydroxyethyl)-2,6-diazaspiro[bicyclo[3.2.2]nonane-9,1′-cyclohexane]-2-carboxamide]	100%	IC50 (MDCK cysts): 370 nM
CCOc1ccc(N2C[C@H]3CN(Cc4ccc(Cl)cc4)C[C@@H]2C(C)(C)C3)cc1 [Example 40, (1R,5S)-3-(4-chlorobenzyl)-6-(4-ethoxyphenyl)-9,9-dimethyl-3,6-diazabicyclo[3.2.2]nonane]	68%	
CCCCc1ccc(N2C[C@H]3CN(C(=O)NCCO)C[C@@H]2C(C)(C)C3)cc1 [Example 33, (1S,5S)-6-(4-butylphenyl)-N-(2-hydroxyethyl)-9,9-dimethyl-3,6-diazabicyclo[3.2.2]nonane-3-carboxamide]	69.3%	
CCCS(=O)(=O)N1C[C@@H]2CN(c3ccc(OCC)cc3)[C@H](C1)C(C)(C)C2 [Example 54, (1S,5S)-6-(4-ethoxyphenyl)-9,9-dimethyl-3-(propylsulfonyl)-3,6-diazabicyclo[3.2.2]nonane]	54%	
CCOc1ccc(N2C[C@H]3CN(C4=NCCO4)C[C@@H]2C(C)(C)C3)cc1 [Example 38, 2-((1S,5S)-6-(4-ethoxyphenyl)-9,9-dimethyl-3,6-diazabicyclo[3.2.2]nonan-3-yl)-4,5-dihydrooxazole]	59%	
CCOc1ccc(N2C[C@@H]3CN(C(=O)NCCO)C[C@H]2C(C)(C)C3)cc1 [Example 21, (1R,5R)-6-(4-ethoxyphenyl)-N-(2-hydroxyethyl)-9,9-dimethyl-3,6-diazabicyclo[3.2.2]nonane-3-carboxamide]	94%	
CCOc1ccc(N2C[C@H]3CN(C(=O)CNC(=N)CN)C[C@@H]2C(C)(C)C3)cc1 [Example 53, 2-amino-N-(2-((1S,5S)-6-(4-ethoxyphenyl)-9,9-dimethyl-3,6-diazabicyclo[3.2.2]nonan-3-yl)-2-oxoethyl)acetimidamide]	100%	
CCOc1ccc(N2C[C@H]3CN(C(=O)c4ccccn4)C[C@@H]2C(C)(C)C3)cc1 [Example 51, ((1S,5S)-6-(4-ethoxyphenyl)-9,9-dimethyl-3,6-diazabicyclo[3.2.2]nonan-3-yl)(pyridin-2-yl)methanone]	75%	
CC1(C)C[C@@H]2CN(C(=O)NCCO)C[C@H]1N(c1ccc(Oc3ccccn3)cc1)C2 [Example 28, (1S,5S)-N-(2-hydroxyethyl)-9,9-dimethyl-6-(4-(pyridin-2-yloxy)phenyl)-3,6-diazabicyclo[3.2.2]nonane-3-carboxamide]	100%	
CCOc1ccc(N2C[C@H]3CN(C(=O)N4CCC(C#N)CC4)C[C@@H]2C(C)(C)C3)cc1 [Example 17, 1-((1S,5S)-6-(4-ethoxyphenyl)-9,9-dimethyl-3,6-diazabicyclo[3.2.2]nonane-3-carbonyl)piperidine-4-carbonitrile]		inhibition at 2.5 µM (2.5 uM (stated in cell), MDCK cysts, DMSO = 0%, BAPN 1 mM = 100% inhibition, read-out: LOX biosensor inhibition (cyst) @ 2.5 uM): 77%
N#CCCN [BAPN, β-aminopropionitrile, reference compound]		LOX inhibition in cysts assay (reference used as full inhibition) (1 mM, readout used as 100% inhibition): 100%
C#CCN1C[C@@H]2CN(c3ccc(OCC)cc3)[C@H](C1)C(C)(C)C2 [Example 41, (1R,5S)-6-(4-ethoxyphenyl)-9,9-dimethyl-3-(prop-2-yn-1-yl)-3,6-diazabicyclo[3.2.2]nonane]	87%	
CCOc1ccc(N2C[C@H]3CN(S(=O)(=O)c4ccc(F)cc4)C[C@@H]2C(C)(C)C3)cc1 [Example 55, (1S,5S)-6-(4-ethoxyphenyl)-3-((4-fluorophenyl)sulfonyl)-9,9-dimethyl-3,6-diazabicyclo[3.2.2]nonane]	100%	
CCOc1ccc(N2C[C@H]3CN(CC(O)CC#N)C[C@@H]2C(C)(C)C3)cc1 (stereo partly drawn) [Example 46, 4-((1R,5S)-6-(4-Ethoxyphenyl)-9,9-dimethyl-3,6-diazabicyclo[3.2.2]nonan-3-yl)-3-hydroxybutanenitrile]	72%	
